Measurements from PMC8042910, “Adiponectin-mimetic novel nonapeptide rescues aberrant neuronal metabolic-associated memory deficits in Alzheimer’s disease” (Molecular Neurodegeneration, 2021).
Residues, ends and D or L forms follow the SMILES beside them.

Tests used:
[1] = system: hippocampal pyramidal neuronal cells; test: Golgi staining, dendritic complexity and spine density of hippocampal CA1 pyramidal neurons; type: in vivo, mouse; conditions: Adipo−/− and AβO mice
Description: In a separate cohort of studies, we performed Golgi staining and morphological analysis of hippocampal pyramidal neuronal cells and were investigated as accordingly our previous protocol.

[2] = Stability and half-life of Os-pep in mouse plasma; type: in vitro ADME; conditions: 37 °C, LC-MS/MS
Method: The stability of Os-pep in mouse plasma was evaluated. An aqueous stock solution of Os-pep was added to each mouse plasma sample (n= 3) at a final concentration of 1 μg/mL. Tubes were placed in a Thermomixer (Eppendorf, Germany) and maintained at 37 °C with rotation at 300 rpm. These samples were incubated for up to 2 h. The amount of peptide remaining after the incubation was immediately determined by liquid chromatography-tandem mass spectrometry (LC-MS/MS). At different time intervals, an aliquot (100 μL) of ice-cold acetonitrile containing 0.1 μg/mL gabapentin (internal standard) was added to a 50 μL aliquot of the sample. Deproteinized samples were analyzed after vortex-mixing and centrifugation.

[3] = system: p-PI3K/Akt/GSK3β (Ser 9); test: Downstream insulin signaling in mouse brain, immunoblot; type: in vivo; conditions: AβO-treated, APP/PS1 and Adipo−/− mice, 5 μg/g, i.p., alternating days for 45 days
Method: (§1) Os-pep was dissolved in double-deionized distilled water and then prepared in normal saline to obtain the final administered concentration. The AβO, APP/PS1, Adipo^−/− and WT mice were injected i.p. with Os-pep at a dosage of 5 μg/g on alternating days for 45 days. WT, Veh-injected transgenic-APP/PS1 and Adipo^−/− mice were injected with the same volume of double-deionized water and normal saline. The WT control and sham mice as well as the Veh-injected AβO, APP/PS1, Adipo^−/− and HFD mice received the same volume of double-deionized distilled water or normal saline.
(§2) The protein concentrations of the homogenates of mouse brain tissue and cell lysates in vitro were measured using a Bio-Rad protein assay kit (Bio-Rad Laboratories, Hercules, CA), and immunoblotting was performed as we previously described, using primary antibodies (detailed information described in the supplementary Table 1). Western blotting membranes have been cut prior to original western blot images and original western blot images are available at supplementary material.

[4] = system: spatial working memory; test: Y-maze test; type: in vivo, mouse; conditions: AβO-injected, APP/PS1 and Adipo−/− mice, n = 13/group
Method: To evaluate the learning and memory functions of the mice, we performed the Morris water maze (MWM) and Y-maze tests. After completion of the Os-pep dosage regimen, behavioral studies were performed on AβO-injected, AβO-injected and scramble and functional AdipoR1 shRNA-treated, APP/PS1 and Adipo^−/− mice (n = 13/group) using the MWM and Y-maze tests. […] The mice were randomly selected, and the operators were unaware of the genotype and treatment details for the behavioral study. The MWM and Y-maze tests were performed as previously described.

[5] = system: mice; test: Safety of chronic optimized dosage regimen in mice; type: in vivo, mouse; conditions: 5 μg/g, i.p.
Method: as §1
We monitored and weighed the mice three times per week to examine the effect of Os-pep dosage regimen (5 µg/g, i.p., on alternating days for 45 days) on the animals’ body weights. At the completion of the treatment, we calculated the average change in the body weight of the mice. At the completion of the treatments and behavioral experiments, blood samples were collected by cardiac puncture of the right atrium. […]

[6] = system: p-IRS-1; test: Neuronal insulin resistance (p-IRS-1) in mouse brain, immunoblot; type: in vivo; conditions: AβO-treated, APP/PS1, Adipo−/− and HFD mice, 5 μg/g, i.p., alternating days for 45 days
Method: as §1, §2
A separate cohort of animals was used to develop the HFD mouse model. Eight-week-old C57BL/6N male mice were bought from Samtako Bio (Republic of Korea). Mice were housed in the university animal housing facility under a 12 h/12 h light/dark cycle at 23°C and 60 ± 10% humidity, with food and water available ad libitum. […]

[7] = system: LTP; test: Electrophysiology, LTP in hippocampal CA1 slices; type: in vivo, mouse
[8] = system: HT22 cells; test: ApoTox-Glo Triplex assay (viability, cytotoxicity, caspase 3/7), AβO-exposed cells; type: cell-based, mouse; conditions: 12 h
Method: The ApoTox-Glo^TM Triplex assay (Promega, Madison, WI) was performed to assess the viability, cytotoxicity and caspase^3/7 activation in the human neuroblastoma SH-SY5Y and mouse hippocampal HT22 cells. SH-SY5Y and HT22 cells (2×10^4/ml) were cultured in 96-well plates (Thermo Fisher Scientific) containing DMEM supplemented with 10% FBS and 1% antibiotics and incubated at 37°C in a humidified incubator containing 5% CO2. After reaching 70% confluency, the cells were treated with AβO (1 µM) and different concentrations of Os-pep (0.5, 1, 5 and 10 µM) for 12 h. The control group (cells treated with 0.01% DMSO) was also analyzed. In addition, SH-SY5Y and HT22 cells were transfected with the AdipoR1 siRNA (h) (SC-60123) and AdipoR1 siRNA (m) (SC-60124), respectively, and treated with AβO (1 µM) and Os-pep (10 µM) for 12 h; the control group was transfected with the negative siRNA (Ambion, Thermo Fisher Scientific) and treated with 0.01% DMSO. The assay was performed according to our previously described protocols.

C[C@@H](O)[C@H](NC(=O)[C@@H]1CCCN1C(=O)CNC(=O)[C@H](CS)NC(=O)[C@@H]1CCCN1C(=O)CNC(=O)[C@H](CCC(N)=O)NC(=O)[C@@H](NC(=O)[C@@H](N)CS)[C@@H](C)O)C(=O)O [Os-pep] (H-CTQGPCGPT-OH; N-terminus and C-terminus assumed)
total dendritic length ([1]; 5 μg/g, i.p., alternating days for 45 days): significantly increased the total dendritic length | total number of spines and filopodia-like spines ([1]; hippocampal CA1): significantly increased the total number of spines and the number of filopodia-like spines | half-life (t1/2) ([2]; 1 μg/mL, incubated up to 2 h, n = 3, first-order kinetics): approximately 2 h | remaining at 2 h, 1 μg/mL ([2]; 300 rpm, after 2 h, n = 3, 0 min set to 100%, read-out: initial concentration remained): 53% | half-life at 1 μg/mL ([2]; triplicate samples, read-out: Half-life (printed in Fig. 8c) (converted)): 2.03 h | p-PI3K/Akt/GSK3β (Ser 9) levels [3]: reversed the reduction | percentage of spontaneous alternation behaviors [4]: significantly increased | liver or kidney dysfunction (serum biochemical parameters) ([5]; alternating days for 45 days, APP/PS1, HFD and Adipo−/− mice): did not induce liver or kidney dysfunction | undesirable effects of chronic Os-pep treatment alone ([5]; on alternating days for 45 days, Os-pep alone): did not induce any undesirable effects | p-IRS-1 Ser636/312 levels [6]: significantly reducing the increase | p-IRS-1 Tyr 632 levels [6]: significantly increasing | LTP ([7]; APP/PS1 and Adipo−/− mice, 5 μg/g, i.p., alternating days for 45 days, n = 5–6/group): improved LTP | potentiating effect on LTP with AdipoR1 silencing ([7]; AβO mice with shRNA-mediated silencing of AdipoR1 gene): significantly attenuated | suppression of LTP, scramble shRNA ([7]; scramble shRNA-treated AβO mice, 5 μg/g, i.p., alternating days for 45 days): almost completely rescued to a level comparable to that of normal controls | AβO-induced toxicity with AdipoR1 siRNA ([8]; AdipoR1 siRNA-transfected HT22, AβO 1 μM, Os-pep 10 μM): did not reduce the AβO-induced toxicity | AβO neurotoxicity (viability, cytotoxicity, caspase 3/7) ([8]; HT22, AβO 1 μM, Os-pep 10 μM): significantly reduced AβO (1 μM) neurotoxicity | neurotoxic effects of AβO ([8]; HT22, AβO 1 μM, cotreatment 0.5, 1, 5 and 10 μM): reduced the neurotoxic effects of AβO
